Reference: article PMC9430770 (Microbiology Spectrum, 2022)

Legend:
C. albicans = experiment: Treatment in liquid YP medium with different carbon sources, then spotting on solid YPD; format: cell-based, Candida albicans; conditions: 128 μg/mL BE, 48 h
Source text: FIG 2 Eno1 is a target of BE. (A) Schematic diagram of synthesis label-BE. Label-BE is synthesized by intermediate TPD-10a with benzyl bromide structure and triacetylated BE. (B) The molecular structure of label-BE. Label-BE contains a trifluoromethylphenyl diazo heterocyclic propylene group (marked by a red dotted line) as a photoaffinity group to enhance the binding of label-BE to its target proteins and an alkyne group (marked by a blue dotted line) connected with an azide group (from the TAMRA-N3 or biotin-N3) by a copper-catalyzed azide-alkyne cycloaddition. (C) The molecular structures of TAMRA-N3 and biotin-N3. Both of them contain azide groups (marked by a blue dotted line) connected with an alkyne group of label-BE to highlight the target proteins of label-BE. (D) The competition experiment with BE and label-BE used the TAMRA-N3 as a reporter. C. albicans cell lysates were preincubated with 100 μM BE (lane 2) or not (lane 3). Subsequently, the two groups were incubated with 10 μM label-BE and irradiated with UV light at 365 nm and then treated with TAMRA-N3. After separation of SDS-PAGE, label-BE-targeted proteins were visualized by in-gel fluorescence scanning. The three fluorescent bands in lane 3 (indicated by red triangles) were cut out and pooled and then analyzed by LC-MS/MS. (E) The competition experiment with BE and label-BE used the biotin-N3 as a reporter. In the following enrichment with streptavidin-conjugated beads and separation by SDS-PAGE gel, targets of label-BE were visualized by Coomassie blue staining. The brighter band in lane 3 (indicated by red triangle) was then cut out and analyzed by LC-MS/MS. […] C. albicans cells were first treated with 128 μg/mL BE in liquid YP medium with either 3-PG (32 mg/mL), pyruvate (32 mg/mL), glucose (20 mg/mL), or glycerol (2% [vol/vol]) for 48 h and then were spotted (1:10 dilution) onto solid YPD medium and photographed after 48 h of incubation at 30°C. The red termination line represents inhibition; 3-PG, 3-phosphoglyceric acid. (G) The competition experiment with BE and label-BE used the TAMRA-N3 as a reporter by E. coli cell lysates containing recombinant C. albicans Eno1.
In order to further identify which glycolysis-related protein is the target of BE, we investigated the antifungal activity of BE in the media containing different intermediate products of glycolysis. 3-Phosphoglyceric acid (3-PG) is a downstream intermediate of Pgk1-catalyzed glycolysis but an upstream intermediate of Eno1-catalyzed glycolysis, while pyruvate is a downstream intermediate of Eno1-catalyzed glycolysis (Fig. 2F). […]

[1] = molecular target: T1, recombinant C. albicans Eno1 (Candida albicans, UniProt P30575); experiment: Target protein competition experiment between BE and label-BE (TAMRA-N3 reporter); format: binding; conditions: preincubation with 100 μM BE, then 10 μM label-BE; E. coli lysates with recombinant CaEno1
T1 construct: the full-length ENO1 gene from C. albicans was cloned into the pET-21a (+) plasmid; made in house; host or cells: E. coli BL21(DE3)
T1 sequence (P30575 whole entry): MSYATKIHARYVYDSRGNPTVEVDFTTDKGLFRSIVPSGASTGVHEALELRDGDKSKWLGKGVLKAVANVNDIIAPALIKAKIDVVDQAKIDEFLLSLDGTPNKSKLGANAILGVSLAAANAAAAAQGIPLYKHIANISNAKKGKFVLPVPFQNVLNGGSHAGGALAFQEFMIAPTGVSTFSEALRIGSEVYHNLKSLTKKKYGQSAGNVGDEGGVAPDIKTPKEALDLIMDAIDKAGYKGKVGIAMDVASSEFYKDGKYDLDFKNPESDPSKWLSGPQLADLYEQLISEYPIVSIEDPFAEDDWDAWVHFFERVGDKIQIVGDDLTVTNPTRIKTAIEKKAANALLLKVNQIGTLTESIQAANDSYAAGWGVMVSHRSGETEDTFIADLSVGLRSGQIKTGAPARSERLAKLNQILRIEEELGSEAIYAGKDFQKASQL
Source text: FIG 2 Eno1 is a target of BE. (A) Schematic diagram of synthesis label-BE. Label-BE is synthesized by intermediate TPD-10a with benzyl bromide structure and triacetylated BE. (B) The molecular structure of label-BE. Label-BE contains a trifluoromethylphenyl diazo heterocyclic propylene group (marked by a red dotted line) as a photoaffinity group to enhance the binding of label-BE to its target proteins and an alkyne group (marked by a blue dotted line) connected with an azide group (from the TAMRA-N3 or biotin-N3) by a copper-catalyzed azide-alkyne cycloaddition. (C) The molecular structures of TAMRA-N3 and biotin-N3. […] After separation of SDS-PAGE, label-BE-targeted proteins were visualized by in-gel fluorescence scanning. The three fluorescent bands in lane 3 (indicated by red triangles) were cut out and pooled and then analyzed by LC-MS/MS. […] The brighter band in lane 3 (indicated by red triangle) was then cut out and analyzed by LC-MS/MS. […]
Target protein competition experiments between BE and label-BE were performed as described previously ([51], [52]). […] The bands with changes in fluorescence brightness were then cut off and analyzed by LC-MS/MS; for labeling label-BE with biotin-N3, protein solutions were enriched with streptavidin-conjugated beads. […]

## O=c1cc(-c2ccccc2)oc2cc(O)c(O)c(O)c12 [BE, Baicalein]
C. albicans; liquid YP medium with 3-PG (32 mg/mL)
  antifungal activity: strong antifungal activity
C. albicans; liquid YP medium with glucose (20 mg/mL)
  antifungal activity: strong antifungal activity
C. albicans; liquid YP medium with glycerol (2% vol/vol)
  antifungal activity: no antifungal activity
C. albicans; liquid YP medium with pyruvate (32 mg/mL)
  antifungal activity: no antifungal activity
[1]
  competition with label-BE for the CaEno1 band (in-gel fluorescence): remarkably reduce the fluorescent brightness
